Source: publication PMC6272295, “In Vitro Neuroprotective Activities of Compounds from Angelica shikokiana Makino” (Molecules, 2015)
Like-named read-outs stand apart in the source and are kept apart here.

How the values were obtained:
[1] = test system: intracellular ROS in Neuro-2A cells; assay: Scavenging of intracellular reactive oxygen species (Bes-H2O2-AC, DFF fluorescence); format: cell-based, Mouse; conditions: summary Table 4; also: key: +: Weak activity; ++: Strong activity
Procedure: (§1) Neuro-2A cell line was maintained in Eagle’s Minimum Essential medium supplemented with 10% fetal bovine serum, 1% of 100× antibiotic—antimitotic agents (containing penicillin and streptomycin) in a humid atmosphere of 5% (v/v) CO2 and 95% (v/v) air at 37 °C. Neuro-2A cells were plated in 96-well cell culture plates at a density of 3 × 10^4 cells/well for H2O2 and intracellular ROS assays and 2.5 × 10^3 cells/well for the Aβ25-35-assay.
This assay was performed as previously described with some modifications. Briefly, Neuro-2A cells were seeded in 96-well Clear Fluorescence Black Plate (number 655090, Greiner Bio-one, Tokyo, Japan). Cells were treated with three different concentrations (25, 50, 100 µM) of the samples. After 2 h incubation, cells were subjected to oxidative stress using 600 µM of H2O2 for 30 min. The nucleus was stained by Hoechst 33342 (Dojindo, Kumamoto, Japan), and the amount of difluorofluorescein (DFF) released from the reaction of H2O2 and BES-H2O2-Ac was taken as an indication of the amount of intracellular H2O2 and ROS. Images of each well were acquired using an IN Cell Analyzer 1000 (GE Healthcare, Buckinghamshire, UK) using 360-nm (Hoechst 33342) and 480-nm (BES-H2O2-Ac) excitation filters and monitored through 460-nm and 535-nm emission filters, respectively. Developer software was used to analyze the images of Hoechst 33342 and BES-H2O2-Ac staining, and the resulting data were then applied to Spotfire Decision Site Client 8.2 software for visualizing the results.

[2] = test system: neuro-2A cells; assay: Protection against H2O2-induced neurotoxicity (MTT); format: cell-based, Mouse
Procedure: as §1
(§2) Cell viability was determined by MTT reduction assay. Briefly, after treatment with isolated compounds, the media was replaced by fresh one after washing the cells with 100 µL PBS and 20 µL of MTT (5 mg/mL) was added to each well. After 4 h incubation at 37 °C, the state of cells was checked under microscope to confirm either cytotoxicity in H2O2 and Aβ25-35 wells or protection in positive controls and isolated compounds ones. The supernatants were aspirated carefully, and 150 µL of DMSO was added to each well to dissolve the dark blue formazan crystals. The absorbance was measured using a microplate reader at 570 nm.
H2O2 interacts with metals in the medium, producing highly cytotoxic hydroxyl radicals that induce neurotoxicity. So, active compounds are those that can scavenge free radicals and increase the cell viability. This assay was performed as previously described with slight modifications. Briefly, the concentration of H2O2 that decreased cell viability to about 50% was determined as follows: cells were cultured in a 96-well plate and after 24 h were further incubated with different concentrations of H2O2 (50, 100, 150, 200 µM) freshly prepared from 30% stock solution. After 24 h, cell viability was determined using the MTT reduction method. H2O2 at a concentration of 150 µM had the desired cytotoxicity and was used for the next step.

[3] = test system: neuro-2A cells; assay: Protection against Aβ25-35-induced neurotoxicity (MTT); format: cell-based, Mouse; conditions: for Protection against Aβ25-35: summary Table 4; as to Protection against Aβ25-35: key: +: Weak activity; ++: Strong activity
Procedure: as §1, §2
Similarly, the concentration of Aβ25-35 that decreased cell viability to about 50% was determined. […] So, the cells were incubated with different concentrations of the isolated compounds (6.25, 12.5, 25, 50 and 100 µM) and EGCG as a positive control for 3 h followed by Aβ25-35 treatment for 72 h.

[4] = biological target: T1, Aβ25-35 (Homo sapiens, UniProt P05067); assay: Thioflavin T assay of Aβ25-35 aggregation; format: biochemical; conditions: for decrease of Th-T fluorescence intensity: Aβ25-35 25 µM; for effect on Th-T fluorescence (in words): 25-100 µM; for Decrease of ThT Fluorescence: summary Table 4; as to Decrease of ThT Fluorescence: key: +: Weak activity; ++: Strong activity
T1 construct: Aβ25-35 (25 µM) freshly prepared in PBS; purchased Sigma (St. Louis, MO, USA)
Procedure: Thioflavin T (ThT), abenzothiazole salt, is used to quantify misfolded protein aggregates and amyloid peptides. ThT is a non-fluorescent dye which, when it binds to amyloid rich aggregates, produces a fluorescent signal proportional to the quantity of amyloid aggregation. Aβ25-35 (25 µM) freshly prepared in PBS (50 mM, pH = 7.4) was incubated at 37 °C with or without different concentrations (100, 50, 25 µM) of isolated compounds at 37 °C and shaken at 300 rpm for 3 h. One hundred µL of each incubated sample was transferred to a 96-well plate, and five µM ThT was added. The ThT fluorescence was measured over 180 min at 10-min intervals at emission λ at 485 nm; and excitation λ at 442 nm using FlexStation 3 Microplate Reader (Molecular Devices, LLC, Sunnyvale, CA, USA), and data were managed by SoftMax Pro® 5.4.1 software. The samples were constantly shaken every 60 sec during the incubation. 1% DMSO and different concentrations of ECCG were taken as negative and positive controls, respectively. The area under the curve (AUC) was taken as indicative of fluorescence intensity. Fluorescence of samples and ThT without Aβ25-35 (sample blank) was detected and subtracted from the final AUC to prevent any interference.

[5] = Scavenging of hydroxyl radical, 2-deoxyribose degradation assay; conditions: for % Inhibition of deoxyribose degradation, Non Site-Specific: at 300 µM (maximum solubility in phosphate buffer)
Procedure: The inhibitory effect of bioactive compounds on deoxyribose degradation was determined by measuring the competition between deoxyribose and bioactive compounds for the hydroxyl radicals (^.OH) generated from the Fe^3+/ascorbate/EDTA/H2O2 system (referred to non-site-specific assay; the major activity measured is ^.OH scavenging) or an Fe^3+/ascorbate/H2O2 system (referred to as a site-specific assay; major activity measured is metal chelation). Both assays depend on the formation of a highly reactive hydroxyl radical, OH, by the interaction of iron ions with H2O2 through Fenton’s reaction. […] This assay was performed as previously described. Different concentrations of tested compounds were dissolved in 400 µL phosphate buffer (0.2 M, pH 7.4). Then, 50 µL of deoxyribose (60 mM), 50 µL of Na2EDTA (2 mM), 50 µL of FeCl3 (3.2 mM), 50 µL of H2O2 (60 mM) and 50 µL of ascorbic acid (2 mM) were added, and the total volume of the reaction mixture was adjusted to 1 mL with buffer. After water-bath incubation at 50 °C for 25 min, the reaction was terminated by 250 µL of trichloroacetic acid (10%, w/w). […] For site-specific hydroxyl-radical-scavenging activity, the reaction mixture was similar to the above method, except that EDTA was replaced by an equivalent volume of buffer.
IC50 values of isolated compounds in AChEI and scavenging of hydroxyl radical assays were calculated using Probit Analysis (SPSS Version 16.0 for Windows, SPSS Inc., Chicago, IL, USA) for five different concentrations in three independent experiments. Cell viability was expressed as a percentage of MTT reduction, assuming that the viability of cells treated with 1% DMSO as a negative control was 100%. […] All values are the mean ± SD of three independent experiments. Data were analyzed for statistical significance using one-way ANOVA, followed by Dunnet’s test as a post-hoc test with GraphPad Prism 5.0 software for Windows (Inc., San Diego, CA, USA).

[6] = biological target: T2, AChE from Electrophorus electricus (Electrophorus electricus, UniProt O42275); assay: biochemical; conditions: Ellman's method; read-out: IC50 in the AChEI assay
T2 construct: purchased Sigma (St. Louis, MO, USA)
Procedure: AChEI activity was measured using Ellman’s method. AChE hydrolyzes the substrate ACTI into acetate and thiocholine. In a neutral and alkaline medium; thiocholine reacts with DTNB to give yellow colored 2-nitro-5-thiobenzoate, which can be detected spectrophotometrically at 405 nm. Briefly, in a 96-well plate, 25 µL of 15 mM ACTI, 125 µL of 3 mM DTNB in buffer B (50 mM Tris HCl, pH = 8, 0.1 M NaCl, 0.02 M MgCl2·6H2O), 50 µL of buffer A (50 mM Tris-HCl, PH 8, 0.1% BSA) and 25 µL of tested sample (dissolved in 25% DMSO) were mixed, and the absorbance was measured using a microplate reader (Biotek, Winooski, VT, USA) at 405 nm every 16 s ten times. Then, 25 µL of AChE (0.25 U/mL in buffer A) was added and the absorbance was measured ten times every 16 s. A solution of 25% DMSO was used as a negative control. Absorbance was plotted against time and enzyme activity was calculated from the slope of the line so obtained and expressed as a percentage compared to an assay using a buffer without any inhibitor. Fractions were tested at 400 µg/mL. To avoid any increase in absorbance due to the color of the compounds or spontaneous hydrolysis of the substrate, the absorbance before addition of the enzyme was subtracted from the absorbance after adding the enzyme.
IC50 values of isolated compounds in AChEI and scavenging of hydroxyl radical assays were calculated using Probit Analysis (SPSS Version 16.0 for Windows, SPSS Inc., Chicago, IL, USA) for five different concentrations in three independent experiments. Cell viability was expressed as a percentage of MTT reduction, assuming that the viability of cells treated with 1% DMSO as a negative control was 100%. Figures were built in Microsoft Excel 2010. All values are the mean ± SD of three independent experiments. Data were analyzed for statistical significance using one-way ANOVA, followed by Dunnet’s test as a post-hoc test with GraphPad Prism 5.0 software for Windows (Inc., San Diego, CA, USA).

T2 sequence (O42275 24-633): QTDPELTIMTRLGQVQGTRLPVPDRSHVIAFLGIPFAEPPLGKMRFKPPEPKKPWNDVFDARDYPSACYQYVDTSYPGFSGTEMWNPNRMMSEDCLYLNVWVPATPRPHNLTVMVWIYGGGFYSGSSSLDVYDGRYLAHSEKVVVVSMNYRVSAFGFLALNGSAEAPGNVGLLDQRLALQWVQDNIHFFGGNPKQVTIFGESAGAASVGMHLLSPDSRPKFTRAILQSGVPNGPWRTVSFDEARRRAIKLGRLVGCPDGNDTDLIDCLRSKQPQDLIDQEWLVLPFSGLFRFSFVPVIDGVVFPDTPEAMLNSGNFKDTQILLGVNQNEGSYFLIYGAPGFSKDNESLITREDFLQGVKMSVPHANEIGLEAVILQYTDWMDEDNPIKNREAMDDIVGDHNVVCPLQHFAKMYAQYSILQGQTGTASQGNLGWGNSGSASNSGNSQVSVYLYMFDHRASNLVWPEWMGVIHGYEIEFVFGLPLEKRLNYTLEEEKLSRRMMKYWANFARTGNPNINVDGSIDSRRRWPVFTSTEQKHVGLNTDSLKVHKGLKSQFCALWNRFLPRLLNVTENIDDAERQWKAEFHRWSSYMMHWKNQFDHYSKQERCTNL

kaempferol-3-O-rutinoside [Kaempferol-3-O-rutinoside (14)]
Intracellular ROS Scavenging [1]: +
neuroprotection against H2O2-induced neurotoxicity (in words) ([2]; 6.25-100 µM, H2O2 150 µM): significant (p < 0.05) increase in cell viability at 100 µM
Protection against H2O2 ([2]; summary Table 4): +
Protection against Aβ25-35 [3]: ++
decrease of Th-T fluorescence intensity ([4]; 50 µM): 12% ±3.7%
decrease of Th-T fluorescence intensity ([4]; 100 µM): 33% ± 2.5%
effect on Th-T fluorescence (in words) [4]: decreased Th-T fluorescence in a dose-dependent manner
Decrease of ThT Fluorescence [4]: ++
IC50 ([5]; Fe3+/ascorbate/EDTA/H2O2 system, read-out: IC50 hydroxyl radical scavenging, Non Site-Specific): 1030 ± 25.7 µM
IC50 ([5]; Fe3+/ascorbate/H2O2 system without EDTA, read-out: IC50 hydroxyl radical scavenging, Site-Specific): 1540 ± 20.8 µM
IC50 ([5]; summary Table 4 (values of the non site-specific assay), read-out: Hydroxyl Radical Scavenging/IC50): 1030 ± 25.7 µM

C/C=C(/C)C(=O)O[C@@H]1[C@H](OC(C)=O)c2c(ccc3ccc(=O)oc23)OC1(C)C [Isopteryxin (4), isopteryxin]
IC50 [6]: 475.9 ± 1.5 µM
neuroprotection against Aβ25-35 (in words) ([3]; at the highest concentration (100 µM)): significant neuroprotection (p < 0.05)
Protection against Aβ25-35 [3]: +
effect on Th-T fluorescence (in words) [4]: weak activity
Decrease of ThT Fluorescence [4]: +
% Inhibition of deoxyribose degradation, Non Site-Specific [5]: 10 ± 2.1%

CC(=O)O[C@@H]1c2c(ccc3ccc(=O)oc23)OC(C)(C)[C@@H]1OC(=O)[C@@]1(C)O[C@H]1C [Isoepoxypteryxin (3), isoepoxypteryxin]
IC50 [6]: 327 ± 3.4 µM
Protection against Aβ25-35 [3]: ++
effect on Th-T fluorescence (in words) [4]: decreased Th-T fluorescence in a dose-dependent manner
Decrease of ThT Fluorescence [4]: ++
% Inhibition of deoxyribose degradation, Non Site-Specific [5]: 6 ± 1.4%
